Source: patent US11304962B2, “Methods of reducing risk of preterm birth” (COVIS Pharma GmbH, priority 2015, dated 2022)
Converted amounts (≈) assume the structure as drawn. Like-named read-outs stand apart in the source and are kept apart here.

Legend:
[1] = Solubility of HPC in benzyl benzoate/castor oil mixtures; format: physicochemical; conditions: for solubility: benzyl benzoate/castor oil mixture, oil or lipid, read-out: mg HPC/mL solution (solubility)
From the text: Weight percent of BB is relative to the castor oil.

[2] = Single-dose crossover pharmacokinetic study of 17-HPC, SQ (upper anterior thigh) vs IM (gluteus maximus) injection; format: in vivo, human; conditions: for AUC(0-t) / Cmax: female, human, single dose, healthy postmenopausal women, plasma; for AUC(0-t): read-out: AUC0-t, LS Geometric Mean; for Cmax: read-out: Cmax, LS Geometric Mean
Protocol: An open-label, randomized, single-dose, two-period, two-treatment, four-sequence, crossover study was conducted to compare equal 250 mg doses of 17-HPC injections, 250 mg/ml given as either a 1 mL deep IM injection to the upper outer quadrant of the gluteus maximus or a 1 mL SQ injection to the upper anterior thigh. The study was conducted with 12 healthy, non-tobacco using postmenopausal adult women. The subjects were given the SQ injection in one study period and the IM injection in the other study period according to the four-sequence randomization schedule. Blood was taken at 4, 24, 48, 72, 96, 120 and 144-hours post-treatment, and plasma concentrations of 17-HPC were measured. The interval between doses was 21 days. The analytical data were used to estimate the pharmacokinetic parameters AUC0-t, Cmax, and Tmax.

[3] = Randomized bioavailability study of 17-HPC, SC injection in triceps area (1.1 or 1.2 mL) vs IM injection (1.0 mL); format: in vivo, human; conditions: for AUC(0-t) / AUC(0-inf) / Cmax / Tmax / half-life: female, human, plasma; for Cmax: healthy postmenopausal women, read-out: Cmax, geometric mean (geometric CV); for Tmax: read-out: Tmax, median; for half-life: read-out: t½, geometric mean (geometric CV) (converted)
Protocol: A randomized study is conducted to compare the bioavailability and injection site pain when 17-HPC, 250 mg/mL, is administered as a single 1.0 mL IM injection (250 mg) in the gluteus maximus or a 1.1 (275 mg) or 1.2 mL (300 mg) SQ injection in the triceps area of healthy post-menopausal women. Patients are randomized into two groups by route of administration. Group A receives a 1.0 mL IM injection of 17-HPC into the upper outer quadrant of the gluteus maximus. Group B receives a 1.1 or 1.2 mL SC injection into the upper outer thigh or arm (triceps area). Patient reported outcomes of injection site pain are collected to assess the safety and usability of SQ administration, either by medical staff or for self-administration of 17-HPC.
All patients have blood drawn prior to administration of 17-HPC, and at 2, 4, 8, 12, 18 and 24 hours post dose, and again at approximately the same time as dosing on days 2-7, 14, 21, and 28.

[4] = 25° C., 63.33 wt % BB relative to castor oil
[5] = 250 mg SQ thigh vs 250 mg IM gluteus maximus
[6] = subcutaneous, SQ injection 250 mg (1 mL) upper anterior thigh
[7] = IM injection 250 mg (1 mL) gluteus maximus
[8] = IM 1.0 mL (250 mg) gluteus maximus
[9] = SC 1.1 mL (275 mg) triceps area
[10] = SC 1.2 mL (300 mg) triceps area

CCCCCC(=O)O[C@]1(C(C)=O)CC[C@H]2[C@@H]3CCC4=CC(=O)CC[C@]4(C)[C@H]3CC[C@@]21C [17-HPC, 17-alpha-hydroxyprogesterone caproate]
Avg. HPC wt % (solubility) ([1]; 5° C., 53.01 wt % BB relative to castor oil): 18.60 wt % | Avg. HPC wt % (solubility) ([1]; 5° C., 63.33 wt % BB relative to castor oil): 20.31 wt % | Avg. HPC wt % (solubility) ([1]; 5° C., 69.43 wt % BB relative to castor oil): 21.62 wt % | Avg. HPC wt % (solubility) ([1]; 5° C., 75.59 wt % BB relative to castor oil): 23.00 wt % | Avg. HPC wt % (solubility) ([1]; 5° C., 81.79 wt % BB relative to castor oil): 24.65 wt % | Avg. HPC wt % (solubility) ([1]; 5° C., 87.91 wt % BB relative to castor oil): 25.22 wt % | Avg. HPC wt % (solubility) ([1]; 15° C., 53.01 wt % BB relative to castor oil): 20.49 wt % | Avg. HPC wt % (solubility) ([1]; 15° C., 63.33 wt % BB relative to castor oil): 22.96 wt % | Avg. HPC wt % (solubility) ([1]; 15° C., 69.43 wt % BB relative to castor oil): 24.28 wt % | Avg. HPC wt % (solubility) ([1]; 15° C., 75.59 wt % BB relative to castor oil): 25.97 wt % | Avg. HPC wt % (solubility) ([1]; 15° C., 81.79 wt % BB relative to castor oil): 27.32 wt % | Avg. HPC wt % (solubility) ([1]; 15° C., 87.91 wt % BB relative to castor oil): 28.30 wt % | Avg. HPC wt % (solubility) ([1]; 25° C., 53.01 wt % BB relative to castor oil): 24.08 wt % | Avg. HPC wt % (solubility) [1, 4]: 27.17 wt % | Avg. HPC wt % (solubility) ([1]; 25° C., 69.43 wt % BB relative to castor oil): 28.76 wt % | Avg. HPC wt % (solubility) ([1]; 25° C., 75.59 wt % BB relative to castor oil): 30.62 wt % | Avg. HPC wt % (solubility) ([1]; 25° C., 81.79 wt % BB relative to castor oil): 31.98 wt % | Avg. HPC wt % (solubility) ([1]; 25° C., 87.91 wt % BB relative to castor oil): 33.26 wt % | solubility data over multiple days ([1]; BB/castor oil with and without benzyl alcohol, 5, 15, 25° C., over 5 days): fairly constant | solubility ([1]; 5 °C, 5° C., 53.01 wt % BB relative to castor oil): 200 mg/mL (≈ 467 mM) | solubility ([1]; 5 °C, 5° C., 63.33 wt % BB relative to castor oil): 222 mg/mL (≈ 518 mM) | solubility ([1]; 5 °C, 5° C., 69.43 wt % BB relative to castor oil): 238 mg/mL (≈ 555 mM) | solubility ([1]; 5 °C, 5° C., 75.59 wt % BB relative to castor oil): 253 mg/mL (≈ 590 mM) | solubility ([1]; 5 °C, 5° C., 81.79 wt % BB relative to castor oil): 273 mg/mL (≈ 637 mM) | solubility ([1]; 5 °C, 5° C., 87.91 wt % BB relative to castor oil): 284 mg/mL (≈ 663 mM) | solubility ([1]; 15 °C, thermodynamic from solid, 15° C., 53.01 wt % BB relative to castor oil): 220 mg/mL (≈ 513 mM) | solubility ([1]; 15 °C, thermodynamic from solid, 15° C., 63.33 wt % BB relative to castor oil): 254 mg/mL (≈ 593 mM) | solubility ([1]; 15 °C, thermodynamic from solid, 15° C., 69.43 wt % BB relative to castor oil): 269 mg/mL (≈ 628 mM) | solubility ([1]; 15 °C, thermodynamic from solid, 15° C., 75.59 wt % BB relative to castor oil): 289 mg/mL (≈ 674 mM) | solubility ([1]; 15 °C, thermodynamic from solid, 15° C., 81.79 wt % BB relative to castor oil): 306 mg/mL (≈ 714 mM) | solubility ([1]; 15 °C, thermodynamic from solid, 15° C., 87.91 wt % BB relative to castor oil): 320 mg/mL (≈ 747 mM) | solubility ([1]; 25 °C, 25° C., 69.43 wt % BB relative to castor oil): 321 mg/mL (≈ 749 mM) | solubility ([1]; 25 °C, 25° C., 75.59 wt % BB relative to castor oil): 347 mg/mL (≈ 810 mM) | solubility ([1]; 25 °C, 25° C., 81.79 wt % BB relative to castor oil): 363 mg/mL (≈ 847 mM) | solubility ([1]; 25 °C, 25° C., 87.91 wt % BB relative to castor oil): 382 mg/mL (≈ 891 mM) | solubility ([1]; 25 °C, thermodynamic from solid, 25° C., 53.01 wt % BB relative to castor oil): 262 mg/mL (≈ 611 mM) | solubility [1, 4]: 303 mg/mL (≈ 707 mM) | AUC0-t LSGM Ratio A (SQ) vs B (IM) [2, 5]: 73.85% | Cmax LSGM Ratio A (SQ) vs B (IM) [2, 5]: 68.39% | AUC(0-t) [2, 6]: 458 ng·h/mL | Cmax [2, 6]: 4.2 ng/mL | AUC(0-t) [2, 7]: 621 ng·h/mL | Cmax [2, 7]: 6.14 ng/mL | […]z, geometric mean (geometric CV) [3, 8]: 0.0031 (37.3) [11] 1/hr | […]z, geometric mean (geometric CV) [3, 9]: 0.0031 (26.8) [17] 1/hr | […]z, geometric mean (geometric CV) [3, 10]: 0.0031 (38.4) [14] 1/hr | AUC(0-t) Least Squares Geometric Mean Ratio, Estimate ([3]; SC (1.1 mL) vs. IM (1.0 mL)): 103.64% | AUC(inf) Least Squares Geometric Mean Ratio, Estimate ([3]; SC (1.1 mL) vs. IM (1.0 mL)): 100.71% | Cmax Least Squares Geometric Mean Ratio, Estimate ([3]; SC (1.1 mL) vs. IM (1.0 mL)): 123.42% | AUC(0-t) Least Squares Geometric Mean Ratio, Estimate ([3]; SC (1.1 mL) vs. SC (1.2 mL)): 94.40% | AUC(inf) Least Squares Geometric Mean Ratio, Estimate ([3]; SC (1.1 mL) vs. SC (1.2 mL)): 91.63% | Cmax Least Squares Geometric Mean Ratio, Estimate ([3]; SC (1.1 mL) vs. SC (1.2 mL)): 107.50% | AUC(0-t) Least Squares Geometric Mean Ratio, Estimate ([3]; SC (1.2 mL) vs. IM (1.0 mL)): 109.78% | AUC(inf) Least Squares Geometric Mean Ratio, Estimate ([3]; SC (1.2 mL) vs. IM (1.0 mL)): 109.91% | Cmax Least Squares Geometric Mean Ratio, Estimate ([3]; SC (1.2 mL) vs. IM (1.0 mL)): 114.81% | AUC(0-t) ([3]; im, 250 mg, IM 1.0 mL (250 mg) gluteus maximus, read-out: AUC(0-t), Least Squares Geometric Mean): 2680 ng·h/mL | AUC(0-t) ([3]; im, 250 mg, IM 1.0 mL (250 mg) gluteus maximus, read-out: AUC(0-t), geometric mean (geometric CV)): 2680 ng·h/mL | AUC(0-inf) ([3]; im, 250 mg, IM 1.0 mL (250 mg) gluteus maximus, read-out: AUC(inf), Least Squares Geometric Mean): 2910 ng·h/mL | AUC(0-inf) ([3]; im, 250 mg, IM 1.0 mL (250 mg) gluteus maximus, read-out: AUC(inf), geometric mean (geometric CV)): 2910 ng·h/mL | AUC(0-t) ([3]; sc, 275 mg, SC 1.1 mL (275 mg) arm, read-out: AUC(0-t), Least Squares Geometric Mean): 2770 ng·h/mL | AUC(0-inf) ([3]; sc, 275 mg, SC 1.1 mL (275 mg) arm, read-out: AUC(inf), Least Squares Geometric Mean): 2930 ng·h/mL | AUC(0-t) ([3]; sc, 275 mg, SC 1.1 mL (275 mg) triceps area, read-out: AUC(0-t), geometric mean (geometric CV)): 2770 ng·h/mL | AUC(0-inf) ([3]; sc, 275 mg, SC 1.1 mL (275 mg) triceps area, read-out: AUC(inf), geometric mean (geometric CV)): 2940 ng·h/mL | AUC(0-t) ([3]; sc, 300 mg, SC 1.2 mL (300 mg) arm, read-out: AUC(0-t), Least Squares Geometric Mean): 2940 ng·h/mL | AUC(0-inf) ([3]; sc, 300 mg, SC 1.2 mL (300 mg) arm, read-out: AUC(inf), Least Squares Geometric Mean): 3200 ng·h/mL | AUC(0-t) ([3]; sc, 300 mg, SC 1.2 mL (300 mg) triceps area, read-out: AUC(0-t), geometric mean (geometric CV)): 2940 ng·h/mL | AUC(0-inf) ([3]; sc, 300 mg, SC 1.2 mL (300 mg) triceps area, read-out: AUC(inf), geometric mean (geometric CV)): 3200 ng·h/mL | Cmax [3, 8]: 7.08 ng/mL | Tmax [3, 8]: 120 h | half-life [3, 8]: 220 h | Cmax [3, 9]: 8.74 ng/mL | Tmax [3, 9]: 24 h | half-life [3, 9]: 223 h | Cmax [3, 10]: 8.13 ng/mL | Tmax [3, 10]: 48 h | half-life [3, 10]: 225 h
